Source: paper PMC10287555, “Camonsertib in DNA damage response-deficient advanced solid tumors: phase 1 trial results” (Nature Medicine, 2023)
“Also recorded” adds a separate entry of the source.

Experiments:
[1] = Dose-limiting toxicities (DLTs), TRESR phase 1 module 1; format: in vivo
Experimental: The starting dose of camonsertib was 5 mg administered on a 5-d-on, 2-d-off (5/2) schedule given once daily (QD) in 21-d cycles. Dose escalation proceeded until a total daily dose of 160 mg was achieved. Per protocol, based on emerging safety, PK and PD data, an alternative schedule of 3 d on, 4 d off (3/4) was then started at a daily dose of 120 mg and escalated to 200 mg, and 160 mg QD (3/4) of camonsertib was proposed as the preliminary RP2D based on long-term (>6 weeks) safety, tolerability, PK and PD data. The dose-limiting toxicity (DLT) rate at the proposed preliminary RP2D was 8% (2/25). All DLTs comprised hematologic toxicities (Table 2).
Patients were treated with single-agent camonsertib at doses ranging from 5–160 mg QD to 40–80 mg twice daily, administered orally on a 5/2 or 3/4 weekly schedule. An intermittent schedule of 2 weeks on/1 week off was also evaluated at dose levels of 160 mg and 200 mg QD (3/4). Each cycle comprised 21 d of treatment. Module 1 dose-escalation decisions based on patients in M1a and M1b cohorts were governed by the Bayesian optimal interval (BOIN) design starting with single-patient cohorts in M1a. […] Escalation of M1a and M1b occurred in parallel until the maximum tolerated dose (MTD) […] RP2D was determined for each schedule. Backfill cohorts were employed to (1) aid in the assessment of possible anti-tumor activity in a subset of patients with a specific gene abnormality or tumor type; (2) allow additional PK/PD evaluation; and (3) further assess drug-related toxicities. Patient safety review and dose decisions were carried out by a Safety Review Committee, comprised of the study investigators and sponsor representatives.
All safety and efficacy endpoints were summarized with descriptive statistics. Safety data were summarized using the safety population, which consisted of all patients who received at least one dose of RP-3500. The DLT rate was based on the DLT-evaluable population, which included those patients in dose-escalation cohorts (M1a and M1b only) receiving ≥80% of planned doses of camonsertib, who completed all required safety evaluations and were observed through the end of cycle 1 or patients who experienced a DLT. Due to the different number of dose levels expected and the exploratory nature of the phase 1 study, anti-tumor activity parameters were primarily based on patients who received ≥1 dose of RP-3500 and had ≥1 post-baseline tumor assessment by RECIST 1.1 and/or GCIG CA-125 or PCWG3 PSA criteria, with an initial dose level of >100 mg d^−1 (dose level predicted to achieve efficacious exposure), as defined in the statistical analysis plan. Additional subgroups based on tumor types or genotypes of interest were based on this efficacy analysis set. […] Patients were, therefore, enrolled in the study and endpoints assessed regardless of sex, gender and race. No formal statistical tests were performed in this study. However, nominal P values (two-sided) were provided for the hypothesis-generating purpose of selected exploratory endpoints, without adjusting for multiplicity. A log-rank test was used in between-group comparisons for the time-to-event endpoints (PFS and DOT), and Fisher’s exact test was used in between-group comparisons for the binary endpoints (CBR, MR, etc.).

Effect on QT interval = test: Effect on QT interval; design: species or system human; details: in vivo
Experimental: Tolerability and safety of camonsertib was evaluated by assessment of AEs, TEAEs, serious adverse events (SAEs), DLTs, concomitant medications and procedures, physical examinations, vital sign measurements, clinical safety laboratory evaluations (hematology, chemistry and urinalysis), ECOG performance status scores and electrocardiograms.

[2] = 3/4 schedule, 60 mg BID (n = 3)
[3] = 3/4 schedule, 120 mg QD (n = 17)
[4] = 3/4 schedule, 160 mg QD (n = 25)
[5] = 3/4 schedule, 2/1w, 160 mg QD (n = 25)
[6] = 3/4 schedule, 2/1w, 200 mg QD (n = 5)
[7] = 5/2 schedule, 40 mg BID (n = 1)
[8] = 5/2 schedule, 100 mg QD (n = 4)
[9] = 5/2 schedule, 120 mg QD (n = 4)
[10] = 5/2 schedule, 160 mg QD (n = 3)
[11] = 5/2 schedule, 5–80 mg QD (n = 5)

C[C@@H]1COCCN1c1cc([C@]2(O)C[C@H]3CC[C@@H](C2)O3)c2cnn(-c3cc[nH]n3)c2n1 [camonsertib]
DLT rate at the proposed preliminary RP2D ([1]; 160 mg QD (3/4), 2/25): 8%
Any DLT event [1, 2]: 1 (33.3) n (%)
DLT: Anemia [1, 2]: 1 (33.3) n (%)
DLT: Febrile neutropenia [1, 2]: 0 n (%)
DLT: Neutrophil count decreased [1, 2]: 0 n (%)
DLT: Platelet count decreased [1, 2]: 0 n (%)
Any DLT event [1, 3]: 1 (5.9) n (%)
DLT: Anemia [1, 3]: 1 (5.9) n (%)
DLT: Febrile neutropenia [1, 3]: 0 n (%)
DLT: Neutrophil count decreased [1, 3]: 0 n (%)
DLT: Platelet count decreased [1, 3]: 0 n (%)
Any DLT event [1, 4]: 2 (8.0) n (%)
DLT: Anemia [1, 4]: 2 (8.0) n (%)
DLT: Febrile neutropenia [1, 4]: 0 n (%)
DLT: Neutrophil count decreased [1, 4]: 0 n (%)
DLT: Platelet count decreased [1, 4]: 0 n (%)
Any DLT event [1, 5]: 2 (8.0) n (%)
DLT: Anemia [1, 5]: 1 (4.0) n (%)
DLT: Febrile neutropenia [1, 5]: 0 n (%)
DLT: Neutrophil count decreased [1, 5]: 1 (4.0) n (%)
DLT: Platelet count decreased [1, 5]: 0 n (%)
Any DLT event [1, 6]: 1 (20.0) n (%)
DLT: Anemia [1, 6]: 1 (20.0) n (%)
DLT: Febrile neutropenia [1, 6]: 1 (20.0) n (%)
DLT: Neutrophil count decreased [1, 6]: 0 n (%)
DLT: Platelet count decreased [1, 6]: 1 (20.0) n (%)
Any DLT event [1, 7]: 0 n (%)
DLT: Anemia [1, 7]: 0 n (%)
DLT: Febrile neutropenia [1, 7]: 0 n (%)
DLT: Neutrophil count decreased [1, 7]: 0 n (%)
DLT: Platelet count decreased [1, 7]: 0 n (%)
Any DLT event [1, 8]: 2 (50.0) n (%)
DLT: Anemia [1, 8]: 1 (25.0) n (%)
DLT: Febrile neutropenia [1, 8]: 0 n (%)
DLT: Neutrophil count decreased [1, 8]: 0 n (%)
DLT: Platelet count decreased [1, 8]: 1 (25.0) n (%)
Any DLT event [1, 9]: 0 n (%)
DLT: Anemia [1, 9]: 0 n (%)
DLT: Febrile neutropenia [1, 9]: 0 n (%)
DLT: Neutrophil count decreased [1, 9]: 0 n (%)
DLT: Platelet count decreased [1, 9]: 0 n (%)
Any DLT event [1, 10]: 0 n (%)
DLT: Anemia [1, 10]: 0 n (%)
DLT: Febrile neutropenia [1, 10]: 0 n (%)
DLT: Neutrophil count decreased [1, 10]: 0 n (%)
DLT: Platelet count decreased [1, 10]: 0 n (%)
Any DLT event [1, 11]: 0 n (%)
DLT: Anemia [1, 11]: 0 n (%)
DLT: Febrile neutropenia [1, 11]: 0 n (%)
DLT: Neutrophil count decreased [1, 11]: 0 n (%)
DLT: Platelet count decreased [1, 11]: 0 n (%)
Preliminary recommended phase 2 dose (RP2D) ([1]; QD, 3 d on/4 d off (weekly on days 1–3)): 160 mg
Any DLT event ([1]; Total DLT evaluable (n = 92)): 9 (9.8) n (%)
DLT: Anemia ([1]; Total DLT evaluable (n = 92)): 7 (7.6) n (%)
DLT: Febrile neutropenia ([1]; Total DLT evaluable (n = 92)): 1 (1.1) n (%)
DLT: Neutrophil count decreased ([1]; Total DLT evaluable (n = 92)): 1 (1.1) n (%)
DLT: Platelet count decreased ([1]; Total DLT evaluable (n = 92)): 2 (2.2) n (%)
Effect on QT interval (ΔQTcF) (Effect on QT interval): No effect on QT interval was observed; also recorded: do not affect
